This is an account of results in paper PMC10412585 (Nature Communications, 2023).

The test system of one experiment is NKG2C+ NK cells. Briefly: NK cell activation assay with peptide-pulsed RMA-S/HLA-E cells. It is filed as cell-based, human. Conditions: RMA-S/HLA-E target cells, 300 µM peptide ([…] µM BFAR263-271), E:T 2:1, 6 h, flow cytometry, n = 3 (n = 2 for some) donors. The method, then:
Fig. 4 NK cell stimulation assays. Assessment of effects of peptides on NK cell activity through incubation of NK cells, peptides, and (A) K562/HLA-E or (B) RMA-S/HLA-E target cells. […] Replicates for individual peptides are from different donors, with solid black lines indicating mean values. […] Representative gating for NKG2A^+/NKG2C^- and NKG2A^-/NKG2C^+ NK cells is shown in Supplemental Fig. 14. Source data are provided as a Source Data file.
In contrast to K562 cell lines which are targets for human NK cells, RMA-S cells (a TAP-deficient mouse cell line)[48] are inert to human NK cells and thus will not activate NK cells absent engagement of an activating receptor on the NK cells. […] We performed additional NK cell activation assays with RMA-S/HLA-E cells (Fig. 4B).
All analyses of human data were carried out in compliance with the relevant ethical regulations. Healthy blood donors gave informed consent at DRK Blutspendedienst Nord-Ost, Dresden, Germany, and buffy coats were obtained as approved by Charité ethics committee (EA4/059/17). PBMCs were isolated from human CMV-seropositive buffy coats by density centrifugation over Ficoll Paque Plus (GE Healthcare) and screened for the presence of NKG2C^+ NK cell expansions by flow cytometry to have sufficient frequencies of single-positive cells for parallel assessment of activation and inhibition via HLA-E[47]. Total NK cells from donors with NKG2C^+ expansions (>10% NKG2A^-/NKG2C^+ NK cells) were enriched with CD56 microbeads (Miltenyi Biotec) and cryopreserved in FBS with 10% v/v DMSO. After thawing, NK cells were washed with complete medium, stained with antibodies and Fixable Viability Dye eFluor 780 (Thermo Fisher) for 15 min at 4 °C in PBS, sorted as viable CD56^+ CD3^− cells, and rested in complete media overnight. […] Brefeldin A and Monensin (BD Biosciences) were added after a 1 h culture period. After an additional 5 h, the stimulation was stopped by centrifugation at 4 °C. Cells underwent surface staining, followed by fixation and intracellular staining using Inside Stain Kit (Miltenyi Biotec). Samples were analyzed by flow cytometry on an LSR Fortessa (BD Biosciences). Inhibition of NKG2A^+ NK cells and activation of NKG2C^+ NK cells was assessed by gating on the respective single-positive populations (Supplemental Fig. 14). Antibodies are listed in Supplemental Table 1: anti-human CD56 PE/Dazzle 594 (1:200 dilution), CD3 APC-eFluor 780 (1:50 dilution), anti-human CD159a (NKG2A) Biotin REAfinity (1:50 dilution), anti-human CD159c (NKG2C) PE REAfinity (1:100 dilution), anti-human CD107a (LAMP-1) Alexa Fluor 488 (1:400 dilution), anti-human IFN-γ PE-Vio 770 REAfinity (1:50 dilution), anti-human TNF-α Brilliant Violet 605 (1:50 dilution), anti-human CCL3 (MIP-1α) REAfinity (1:25 dilution).

Another experiment relates to HLA-E. Briefly: Prometheus differential scanning fluorimetry of HLA-E with peptide. Conditions: refolded HLA-E*01:03/β2M 9 μg, 50x peptide to MHC ratio, high sensitivity capillary, 1 °C per minute 20-95 °C, first inflection point; DMSO control 33.8. It is filed as binding, human. The protocol: Differential scanning fluorimetry (DSF) experiments were performed with a Prometheus NanoTemper NT.48 (Munich, Germany) to measure protein stability, using intrinsic tryptophan fluorescence.
For these experiments, refolded empty HLA-E was generated. Human β2M plus a poly-histidine tag and HLA-E*01:03 extracellular α1, α2, and α3 domains plus an AviTag biotinylation tag were separately codon optimized for E. coli and cloned into the bacterial expression vector pET28a. Inclusion bodies for HLA-E and β2M were made in BL21 E. coli. Inclusion bodies were purified, homogenized, and dissolved, including denaturation in 8 M urea solution. Before refolding, each IB was mixed with an equal volume of Gdn-Cl solution (6 M Guanidine HCl, 500 mM Tris, 2 mM EDTA, 100 mM NaCl) and incubated overnight at 37 °C. β2M was injected dropwise with a 27-gauge needle into refolding buffer (100 mM pH 8.3 Tris, 400 mM L-arginine hydrochloride, 2 mM EDTA, 0.5 mM oxidized glutathione, 5 mM reduced glutathione, 0.2 mM PMSF) and incubated, stirring gently, at 4 °C for 1 h, after which an equal mass of HLA-E heavy chain was similarly injected. This solution incubated at 4 °C overnight, followed by two days of dialysis in 10 mM Tris + 50 mM NaCl. Protein was concentrated in 10 kDa molecular weight cutoff centrifugal concentrators and purified by size exclusion chromatography on an AKTAPURE FPLC (GE Healthcare, Chicago IL), using an S200 column followed by a S75 column.
Individual DSF reactions were set up with 9 μg of MHC and 100×, 50×, or 10× peptide to MHC ratio by molarity (peptides from GenScript). The final reaction volume was 20 μL and reaction mixtures were incubated at room temperature for 20–30 min.
Prometheus excitation power was set such that raw fluorescence counts were between 8000–15000 for each sample. Samples were heated at 1 °C per minute, from 20–95 °C. DSF measurements were taken in duplicate with high-sensitivity and standard capillaries. Melting temperatures were similar for a given peptide across conditions, and representative data from 50x ratio in high sensitivity capillary are presented. A secondary inflection point around 60 °C in most melts is consistent with melting of β2M[76]. […]
Supplemental Figure 9. Differential scanning fluorimetry data generated via Prometheus NanoTemper for predicted peptides with HLA-E. a) Raw 350/330 nm ratios and first derivative for samples. The second inflection point is consistent with β2M unfolding. b) Summary of Tm values for the first inflection point called by Prometheus software for these samples. […]
On the technique in general: In DSF a fluorescence change marks the thermal transition of the protein.

For the sequence VMAPRTLFL [positive control], in the experiment with NKG2C+ NK cells, the “NKG2C-mediated NK cell activation” value is “most potent activating peptide”. The Tm with HLA-E was determined as 51.5 °C.
For “VNPGRSLFL [BFAR263-271, human peptide from Bifunctional apoptosis regulator]”, the “NKG2C-mediated NK cell activation” value in the experiment on NKG2C+ NK cells is “activation similar to the weaker positive control ([…]) or between the two positive controls”. Besides, in the experiment with HLA-E, the Tm stood at 38.5 °C.
